Laboratory results: ChEMBL document CHEMBL1208697 (Bioorg Med Chem Lett, 2010)
pIC50: −log10 of the molar value.

Legend:
Rattus norvegicus [1] = assay: Antiinflammatory activity in rat assessed as inhibition of carrageenan-induced paw edema at 100 mg/kg, po after 3 hrs; type: functional
[2] = target: T1, Prostaglandin G/H synthase 1 (Ovis aries, UniProt P05979)
T1 sequence (P05979 whole entry): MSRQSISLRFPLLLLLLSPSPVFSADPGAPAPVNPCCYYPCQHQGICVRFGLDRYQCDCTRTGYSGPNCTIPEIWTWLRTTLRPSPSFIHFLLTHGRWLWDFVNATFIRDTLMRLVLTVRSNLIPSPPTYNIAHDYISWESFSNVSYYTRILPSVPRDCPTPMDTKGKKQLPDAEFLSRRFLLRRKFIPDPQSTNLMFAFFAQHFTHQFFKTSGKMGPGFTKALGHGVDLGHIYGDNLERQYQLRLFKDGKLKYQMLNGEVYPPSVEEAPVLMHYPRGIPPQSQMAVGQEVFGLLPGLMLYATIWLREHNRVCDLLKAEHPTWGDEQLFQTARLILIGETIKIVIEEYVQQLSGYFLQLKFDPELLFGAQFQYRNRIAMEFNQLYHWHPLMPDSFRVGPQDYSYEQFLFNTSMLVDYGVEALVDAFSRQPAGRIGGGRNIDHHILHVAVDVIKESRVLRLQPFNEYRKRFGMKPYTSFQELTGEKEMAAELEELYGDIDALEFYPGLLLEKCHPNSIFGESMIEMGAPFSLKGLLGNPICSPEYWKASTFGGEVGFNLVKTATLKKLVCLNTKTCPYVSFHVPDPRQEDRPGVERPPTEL
Description: Inhibition of sheep COX1 by enzyme immunoassay

Rattus norvegicus [3] = assay: Antiinflammatory activity in rat assessed as inhibition of carrageenan-induced paw edema after 3 hrs; type: functional

| Structure (SMILES) | pIC50 [2] | inhibition in vivo at 100 mg/kg (Rattus norvegicus [1]) [%] | ED50 (Rattus norvegicus [3]) [µmol/kg] |
| --- | --- | --- | --- |
| NS(=O)(=O)c1ccc(-n2nc(C(F)(F)F)cc2-c2ccc(/[N+]([O-])=N\O)cc2)cc1 | – | 65.7 | 168 |
| CO/N=[N+](/[O-])c1ccc(-c2cc(C(F)(F)F)nn2-c2ccc(S(N)(=O)=O)cc2)cc1 | 4.92 | 47.7 | 241 |
| CC(=O)OC(C)O/N=[N+](/[O-])c1ccc(-c2cc(C(F)(F)F)nn2-c2ccc(S(C)(=O)=O)cc2)cc1 (stereo unspecified) | 4.77 | 5.1 | – |

Further lines, with some results ahead:

| pIC50 [2] | Structure (SMILES) | inhibition in vivo at 100 mg/kg (Rattus norvegicus [1]) [%] | ED50 (Rattus norvegicus [3]) [µmol/kg] |
| --- | --- | --- | --- |
| 4.95 | CC(=O)OC(C)O/N=[N+](/[O-])c1ccc(-c2cc(C(F)(F)F)nn2-c2ccc(S(N)(=O)=O)cc2)cc1 (stereo unspecified) | 18.6 | – |
| 4.98 | CO/N=[N+](/[O-])c1ccc(-c2cc(C(F)(F)F)nn2-c2ccc(S(C)(=O)=O)cc2)cc1 | 9.8 | – |
